Assay results as given in PubChem BioAssay (NCI).
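Step 1: Grow cells in 96-well plates. Step 2: Expose to compound for 48 hours at 5 concentrations. Step 3: Interpolate endpoints linearly; if unreached, use highest concentration. GI50 marks 50% less growth. The concentration for full growth arrest is given as TGI.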

Assays:
Assay in all cases: NCI-60 cell line screen, 48 h
UACC-257 melanoma = test system: UACC-257 melanoma
HL-60(TB) leukemia = test system: HL-60(TB) leukemia
SN12C renal = test system: SN12C renal
SW-620 colon = test system: SW-620 colon
OVCAR-3 ovarian = test system: OVCAR-3 ovarian
LOX IMVI melanoma = test system: LOX IMVI melanoma
OVCAR-5 ovarian = test system: OVCAR-5 ovarian
DU-145 prostate = test system: DU-145 prostate
NCI-H522 lung = test system: NCI-H522 lung
NCI-H226 lung = test system: NCI-H226 lung

| Structure (SMILES) | TGI (UACC-257 melanoma) [µM] | TGI (HL-60(TB) leukemia) [µM] | TGI (SN12C renal) [µM] | TGI (SW-620 colon) [µM] | TGI (OVCAR-3 ovarian) [µM] | TGI (LOX IMVI melanoma) [µM] | TGI (OVCAR-5 ovarian) [µM] | GI50 (UACC-257 melanoma) [µM] | GI50 (DU-145 prostate) [µM] | TGI (DU-145 prostate) [µM] | GI50 (HL-60(TB) leukemia) [µM] | GI50 (SN12C renal) [µM] | GI50 (SW-620 colon) [µM] | GI50 (OVCAR-3 ovarian) [µM] | GI50 (NCI-H522 lung) [µM] | TGI (NCI-H522 lung) [µM] | GI50 (LOX IMVI melanoma) [µM] | GI50 (NCI-H226 lung) [µM] | TGI (NCI-H226 lung) [µM] | GI50 (OVCAR-5 ovarian) [µM] |
| --- | --- | --- | --- | --- | --- | --- | --- | --- | --- | --- | --- | --- | --- | --- | --- | --- | --- | --- | --- | --- |
| COc1cc(C2C(C(=O)O)=C(COC(C)=O)Oc3cc4c(cc32)OCO4)cc(OC)c1OC (configuration not stated) | > 100 | > 100 | > 100 | > 100 | > 100 | > 100 | > 100 | – | – | – | – | – | – | – | – | – | – | – | – | – |
| CO/N=C(\C)COc1ccc2c(=O)c(-c3ccccc3)coc2c1 | 97.3 | > 100 | 68.9 | > 100 | 74.2 | > 100 | 43.8 | 25.6 | 23.1 | 52.7 | 37.7 | 30.1 | > 100 | 30.2 | 22.2 | 79 | 42.5 | 36.4 | > 100 | 3.23 |
| CCOC(=O)C(O)(NC(=O)c1ccccc1F)C(F)(F)F (configuration not stated) | > 100 | > 100 | > 100 | > 100 | > 100 | > 100 | > 100 | – | – | > 100 | – | – | – | – | – | > 100 | – | – | > 100 | – |
| CCc1ccc2nc(-c3ccc(O)cc3)sc2c1 | 35.7 | 10.2 | 27.7 | 38 | 28.1 | 33.6 | 28.6 | – | – | 28.9 | – | – | – | – | – | 18.3 | – | – | 30.1 | – |
